# From article PMC12132946, “Isoflurane activates the type 1 ryanodine receptor to induce anesthesia in mice” (PLOS Biology, 2025)
# Legend:
# [1] = biological target: T1, type 1 ryanodine receptor (RyR1) (Oryctolagus cuniculus, UniProt P11716); assay: intracellular calcium assay in HEK […] stable cell lines; selective over M4000F, RyR2, RyR3; assay type: cell-based; set-up: full-length rabbit RyR1(WT)
# [2] = biological target: T1, type 1 ryanodine receptor (RyR1); assay: intracellular calcium assay in HEK […] stable cell line; compared with M4000F; assay type: cell-based; set-up: full-length rabbit RyR1(WT)
# [3] = biological target: T1, type 1 ryanodine receptor (RyR1); assay: intracellular calcium assay in HEK […] cells with RyR1 WT and point mutants; assay type: cell-based; set-up: full-length rabbit RyR1
# [4] = biological target: T1, type 1 ryanodine receptor (RyR1); assay: cell-based; set-up: full-length rabbit RyR1; species or system HEK 293; fluorescent calcium indicator assay, peak Fmax/F0, tetracycline-induced RyR1 expression, 384-well plate
# Experimental: There are three isoforms of RyRs in mammals (RyR1, RyR2, and RyR3). To systematically examine the pharmacological properties of each isoform, we used HEK 293 cell lines that express rabbit isoforms under tetracycline regulation. These cells were seeded in a 384-well plate and subjected to an assay in which the intracellular calcium levels were measured using a fluorescent calcium indicator upon drug administration (Fig 1B and 1C). While caffeine is a stimulant that antagonizes the adenosine receptors (IC50s on adenosine receptors are ~10 μM), it is also a typical agonist of RyRs activating all isoforms at higher dosages. Caffeine administration caused dose-dependent increases in intracellular calcium levels depending on the tetracycline-mediated expression of each isoform (Figs 1D–1F and S1A). We observed that, while caffeine causes calcium elevation in the nonexpressed controls, most likely due to the presence of endogenous RyRs in HEK 293 cells, the distinct signals in the expressed conditions indicate that each isoform is successfully expressed as functional channels. Supplementary file pbio.3003172.s001.pdf: S1 Fig Increased intracellular calcium by isoflurane is derived from intracellular calcium stores. […] Each agent was given after measuring the baseline fluorescence for 10 s, as indicated by arrows. […]
# [5] = biological target: T1, type 1 ryanodine receptor (RyR1); assay: intracellular calcium assay in HEK […] cells; selectivity over M4000F; assay type: cell-based; set-up: full-length rabbit RyR1
# [6] = biological target: T1, type 1 ryanodine receptor (RyR1); assay: intracellular calcium assay in HEK […] cells; caffeine-site point mutants; assay type: cell-based; set-up: full-length rabbit RyR1
# [7] = biological target: T1, type 1 ryanodine receptor (RyR1); assay: intracellular calcium assay in HEK […] stable cell line; assay type: cell-based; set-up: full-length rabbit RyR1
# [8] = biological target: T2, mouse RyR1(WT) (Mus musculus, UniProt E9PZQ0); assay: intracellular calcium assay in HEK […] cells; response lost in M4003F; assay type: cell-based
# T2 construct: full-length mouse RyR1
# [9] = biological target: T1, type 1 ryanodine receptor (RyR1); assay: intracellular calcium (Cal-520) assay in HEK […] cells with tetracycline-induced RyR1; chimeras and point mutants; assay type: cell-based; set-up: full-length rabbit RyR1; RyR1 Q3889-S4213 necessary and sufficient for the response
# [10] = biological target: T1, type 1 ryanodine receptor (RyR1); assay: intracellular calcium assay in HEK […] stable cell line; response lost in M4000F; assay type: cell-based; set-up: full-length rabbit RyR1
# T1 sequence (P11716 whole entry): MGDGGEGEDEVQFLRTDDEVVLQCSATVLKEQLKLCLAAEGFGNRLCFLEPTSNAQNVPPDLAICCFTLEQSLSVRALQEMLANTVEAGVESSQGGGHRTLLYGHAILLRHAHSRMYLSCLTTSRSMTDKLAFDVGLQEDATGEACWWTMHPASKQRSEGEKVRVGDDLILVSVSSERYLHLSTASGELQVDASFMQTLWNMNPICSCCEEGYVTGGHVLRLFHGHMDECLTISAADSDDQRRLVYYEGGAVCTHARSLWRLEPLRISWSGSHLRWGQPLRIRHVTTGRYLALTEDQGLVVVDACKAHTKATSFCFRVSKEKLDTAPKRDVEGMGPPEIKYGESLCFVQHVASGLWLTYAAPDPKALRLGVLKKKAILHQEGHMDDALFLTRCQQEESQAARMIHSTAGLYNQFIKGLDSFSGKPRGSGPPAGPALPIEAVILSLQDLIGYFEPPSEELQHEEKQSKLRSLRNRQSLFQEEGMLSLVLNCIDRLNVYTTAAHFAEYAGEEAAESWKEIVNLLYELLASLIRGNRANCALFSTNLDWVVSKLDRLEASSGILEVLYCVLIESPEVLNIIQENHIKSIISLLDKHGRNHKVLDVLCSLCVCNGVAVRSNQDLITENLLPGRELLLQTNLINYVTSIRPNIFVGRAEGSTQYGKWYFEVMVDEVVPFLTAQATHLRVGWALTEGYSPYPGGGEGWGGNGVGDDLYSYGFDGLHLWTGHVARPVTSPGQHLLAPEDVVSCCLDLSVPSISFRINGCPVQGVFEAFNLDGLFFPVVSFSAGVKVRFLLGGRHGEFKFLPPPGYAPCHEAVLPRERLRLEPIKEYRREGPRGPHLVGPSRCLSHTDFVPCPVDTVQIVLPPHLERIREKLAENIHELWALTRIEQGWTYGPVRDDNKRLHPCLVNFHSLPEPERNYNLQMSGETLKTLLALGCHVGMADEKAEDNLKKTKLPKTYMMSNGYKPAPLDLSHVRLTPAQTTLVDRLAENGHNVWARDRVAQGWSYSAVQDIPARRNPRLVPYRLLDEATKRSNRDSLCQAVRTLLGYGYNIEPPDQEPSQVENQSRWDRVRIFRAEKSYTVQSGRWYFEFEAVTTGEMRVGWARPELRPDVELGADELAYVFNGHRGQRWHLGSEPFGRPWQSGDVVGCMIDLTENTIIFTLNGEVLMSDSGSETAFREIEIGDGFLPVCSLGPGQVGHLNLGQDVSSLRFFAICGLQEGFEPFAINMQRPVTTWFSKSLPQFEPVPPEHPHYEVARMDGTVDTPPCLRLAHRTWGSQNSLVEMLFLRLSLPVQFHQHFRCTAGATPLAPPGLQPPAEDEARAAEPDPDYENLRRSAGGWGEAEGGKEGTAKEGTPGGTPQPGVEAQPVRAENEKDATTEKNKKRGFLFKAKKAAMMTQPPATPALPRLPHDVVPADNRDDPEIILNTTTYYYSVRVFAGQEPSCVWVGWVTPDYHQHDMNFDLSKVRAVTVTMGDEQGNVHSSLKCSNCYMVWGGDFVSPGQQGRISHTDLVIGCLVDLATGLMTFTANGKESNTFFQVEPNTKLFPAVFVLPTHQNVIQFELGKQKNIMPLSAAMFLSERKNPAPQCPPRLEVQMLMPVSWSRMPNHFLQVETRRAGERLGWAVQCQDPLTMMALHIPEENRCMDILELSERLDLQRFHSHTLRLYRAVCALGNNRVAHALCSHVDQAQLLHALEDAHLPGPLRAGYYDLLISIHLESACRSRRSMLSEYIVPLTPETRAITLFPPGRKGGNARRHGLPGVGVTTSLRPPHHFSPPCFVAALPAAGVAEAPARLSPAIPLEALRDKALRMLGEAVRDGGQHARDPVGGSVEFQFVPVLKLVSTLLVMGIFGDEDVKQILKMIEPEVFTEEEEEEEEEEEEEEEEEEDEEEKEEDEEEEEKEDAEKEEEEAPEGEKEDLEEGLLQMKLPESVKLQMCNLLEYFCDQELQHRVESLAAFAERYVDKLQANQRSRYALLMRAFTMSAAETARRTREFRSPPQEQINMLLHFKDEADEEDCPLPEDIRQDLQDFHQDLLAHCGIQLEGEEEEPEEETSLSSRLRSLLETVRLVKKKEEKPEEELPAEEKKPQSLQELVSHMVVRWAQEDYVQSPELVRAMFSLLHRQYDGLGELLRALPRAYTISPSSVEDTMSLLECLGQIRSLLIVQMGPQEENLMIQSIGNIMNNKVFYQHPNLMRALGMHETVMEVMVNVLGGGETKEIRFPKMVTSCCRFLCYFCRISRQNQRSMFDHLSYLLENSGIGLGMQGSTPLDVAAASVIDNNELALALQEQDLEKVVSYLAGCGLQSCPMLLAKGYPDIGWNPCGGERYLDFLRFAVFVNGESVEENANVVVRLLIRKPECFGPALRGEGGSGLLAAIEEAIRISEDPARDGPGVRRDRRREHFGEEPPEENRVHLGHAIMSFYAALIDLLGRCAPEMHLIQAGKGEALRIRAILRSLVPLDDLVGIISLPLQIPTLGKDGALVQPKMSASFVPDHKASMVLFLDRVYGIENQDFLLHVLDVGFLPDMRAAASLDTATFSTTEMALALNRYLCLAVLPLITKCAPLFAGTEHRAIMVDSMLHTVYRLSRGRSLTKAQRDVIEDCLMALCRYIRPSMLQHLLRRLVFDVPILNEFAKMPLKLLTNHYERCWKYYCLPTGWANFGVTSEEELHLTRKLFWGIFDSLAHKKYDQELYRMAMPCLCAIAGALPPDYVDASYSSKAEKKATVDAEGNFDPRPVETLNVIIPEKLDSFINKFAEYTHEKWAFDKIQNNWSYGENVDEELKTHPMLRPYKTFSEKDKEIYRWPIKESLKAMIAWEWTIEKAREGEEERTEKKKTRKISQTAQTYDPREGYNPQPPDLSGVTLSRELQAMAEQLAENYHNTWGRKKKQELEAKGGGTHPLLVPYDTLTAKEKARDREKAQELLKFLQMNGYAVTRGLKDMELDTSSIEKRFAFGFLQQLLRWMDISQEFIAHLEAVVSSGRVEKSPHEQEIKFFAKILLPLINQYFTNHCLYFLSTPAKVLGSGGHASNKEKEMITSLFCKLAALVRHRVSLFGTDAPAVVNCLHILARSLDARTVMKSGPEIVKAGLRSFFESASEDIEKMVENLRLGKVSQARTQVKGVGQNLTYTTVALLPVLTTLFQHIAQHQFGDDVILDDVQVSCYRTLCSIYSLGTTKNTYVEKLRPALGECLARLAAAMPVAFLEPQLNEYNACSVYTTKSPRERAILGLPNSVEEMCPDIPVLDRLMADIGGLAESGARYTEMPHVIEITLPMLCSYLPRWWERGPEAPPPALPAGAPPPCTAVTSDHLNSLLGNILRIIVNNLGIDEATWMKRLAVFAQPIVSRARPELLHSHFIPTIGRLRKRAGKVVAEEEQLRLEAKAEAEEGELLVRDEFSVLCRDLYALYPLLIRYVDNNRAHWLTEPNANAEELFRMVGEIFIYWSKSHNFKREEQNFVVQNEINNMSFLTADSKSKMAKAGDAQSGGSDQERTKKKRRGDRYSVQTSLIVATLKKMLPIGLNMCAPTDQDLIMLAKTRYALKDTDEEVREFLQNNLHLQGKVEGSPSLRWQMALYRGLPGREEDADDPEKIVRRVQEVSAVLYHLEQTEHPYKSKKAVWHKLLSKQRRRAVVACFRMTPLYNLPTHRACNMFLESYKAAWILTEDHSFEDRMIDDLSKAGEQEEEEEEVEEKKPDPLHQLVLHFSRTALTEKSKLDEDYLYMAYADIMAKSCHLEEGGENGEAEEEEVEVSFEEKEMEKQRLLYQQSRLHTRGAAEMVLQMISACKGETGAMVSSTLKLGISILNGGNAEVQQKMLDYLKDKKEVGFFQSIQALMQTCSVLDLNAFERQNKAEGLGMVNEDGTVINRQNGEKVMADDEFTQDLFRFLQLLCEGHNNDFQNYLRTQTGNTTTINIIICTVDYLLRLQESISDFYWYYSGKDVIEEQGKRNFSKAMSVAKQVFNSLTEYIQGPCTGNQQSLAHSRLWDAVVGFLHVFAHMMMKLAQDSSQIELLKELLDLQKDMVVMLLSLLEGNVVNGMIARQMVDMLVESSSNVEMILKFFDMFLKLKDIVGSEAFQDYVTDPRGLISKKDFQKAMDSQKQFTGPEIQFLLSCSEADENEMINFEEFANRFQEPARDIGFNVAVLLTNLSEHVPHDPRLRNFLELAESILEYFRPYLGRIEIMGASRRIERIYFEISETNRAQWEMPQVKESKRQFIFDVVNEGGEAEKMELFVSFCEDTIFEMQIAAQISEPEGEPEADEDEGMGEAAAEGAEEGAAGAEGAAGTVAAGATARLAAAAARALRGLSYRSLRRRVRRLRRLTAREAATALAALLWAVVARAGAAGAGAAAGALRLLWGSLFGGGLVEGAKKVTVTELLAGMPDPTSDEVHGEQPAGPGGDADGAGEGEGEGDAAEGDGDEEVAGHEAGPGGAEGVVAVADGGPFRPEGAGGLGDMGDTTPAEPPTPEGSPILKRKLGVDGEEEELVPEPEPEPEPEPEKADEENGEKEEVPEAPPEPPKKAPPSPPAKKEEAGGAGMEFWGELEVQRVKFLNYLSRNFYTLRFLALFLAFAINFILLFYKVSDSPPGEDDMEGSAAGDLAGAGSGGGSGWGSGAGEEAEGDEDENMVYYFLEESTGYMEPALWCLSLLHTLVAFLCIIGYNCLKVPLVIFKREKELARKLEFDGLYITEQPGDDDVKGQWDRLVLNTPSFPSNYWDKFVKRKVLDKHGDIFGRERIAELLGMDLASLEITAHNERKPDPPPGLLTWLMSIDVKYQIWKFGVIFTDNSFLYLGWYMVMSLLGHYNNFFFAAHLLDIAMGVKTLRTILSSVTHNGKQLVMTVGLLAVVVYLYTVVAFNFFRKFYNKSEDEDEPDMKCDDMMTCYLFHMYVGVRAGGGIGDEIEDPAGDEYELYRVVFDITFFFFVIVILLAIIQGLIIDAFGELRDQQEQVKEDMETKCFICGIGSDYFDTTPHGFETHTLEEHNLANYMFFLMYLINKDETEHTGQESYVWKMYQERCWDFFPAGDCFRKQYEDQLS
compound,measurement,setting,value
"Oc1cccc(Br)c1 [3-BP, 3-bromophenol]","intracellular calcium assay in HEK 293 stable cell lines; selective over M4000F,",[1],"3-bromophenol (3-BP) has higher selectivity for RyR1(WT) than RyR1(M4000F), RyR2, or RyR3"
"Oc1ccc(Br)cc1 [4-BP, 4-bromophenol]",EC50,[2],4.7 µM
"Cc1cc(O)ccc1Cl [4-CmC, 4-chloro-m-cresol]",intracellular calcium assay in HEK 293T cells with RyR1 WT and point mutants,[3],substitution of phenylalanine with alanine (F4062A) substantially reduced the sensitivities to both 4-CmC and isoflurane
"CCc1ccc(O)cc1 [4-EP, 4-ethylphenol]",EC50,[4],24 µM
"Cc1ccc(O)cc1 [4-MP, 4-methylphenol]",EC50,[4],31 µM
same,intracellular calcium assay in HEK 293 cells; selectivity over M4000F,[5],"4-methylphenol (4-MP) and 4-ethylphenol (4-EP), phenolic chemicals with a methyl or ethyl residue"
Cn1c(=O)c2c(ncn2C)n(C)c1=O [caffeine],intracellular calcium assay in HEK 293 cells; caffeine-site point mutants,[6],"RyR1(W4716I), RyR1(W4716L), and RyR1(F3753A) were insensitive to caffeine but were activated by isoflurane"
FC(F)(F)C(Cl)Br (centres unmarked) [halothane],EC50,[7],288 µM
FC(F)OC(Cl)C(F)(F)F (centres unmarked) [isoflurane],intracellular calcium assay in HEK 293 cells; response lost in M4003F,[8],"mouse RyR1(WT) was sensitive to isoflurane, as expected, whereas mouse RyR1(M4003F) was not activated by isoflurane"
same,EC50,[9],203 µM
FCOC(C(F)(F)F)C(F)(F)F [sevoflurane],intracellular calcium assay in HEK 293 stable cell line; response lost in M4000F,[10],"sevoflurane, an inhaled anesthetic with clinical use, activated RyR1 but not RyR2 and RyR3"
